# From patent US4341792A, “Heterobicyclic keto- and amino-acids, esters and amides” (Pfizer Inc., priority 1979, dated 1982)
# What was measured:
# [1] = system: diaphragm tissue from fat-fed rats (pyruvate oxidation); experiment: Pyruvate oxidation by diaphragm tissue from fat-fed rats in vitro (carbon-14 from labelled pyruvate into carbon dioxide); assay type: cell-based; settings: fat-fed rat diaphragm, read-out: % Stimulation (pyruvate oxidation); for activation at 500 µM: concentration 0.5 m. mol.; for activation at 2000 µM: concentration 2 m. mol.; for activation at 1000 µM: concentration 1 m. mol.
# Experimental: (1) increase the oxidation of glucose and/or pyruvate by isolated rat muscle preparations in vitro; The compounds of formulae (I) and (II) have been tested for their ability to increase the oxidation of glucose and/or pyruvate as follows: Diaphragm tissue is obtained from rats fed on a high fat diet similar to `Diet B` described by Zaragoza and Felber, Horm. Metab. Res., 2, 323 (1970). Pyruvate oxidation by such tissue is assessed by measurement of the rate of incorporation of carbon-14 from carbon-14-labelled pyruvate into carbon dioxide in vitro, as described by Bringold, Eur. J. Biochem., 26, 360 (1972). The rate of pyruvate oxidation is depressed by 50-75% compared with that by diaphragm tissue from rats fed on a normal diet. When the compounds of the invention are added to the medium, they are found to stimulate pyruvate oxidation by diaphragm tissue from fat-fed rats in a dose dependent manner.
# [2] = system: pyruvate dehydrogenase enzyme (PDH); experiment: Increase in proportion of active form of pyruvate dehydrogenase (PDHa/PDHt) in hearts of fat-fed rats in vivo; settings: fat-fed rat heart
# Experimental: (2) increase the proportion of the active form of the enzyme pyruvate dehydrogenase (PDH) in organs of animals (e.g., rat heart) in vivo; and The ability of the compounds of this invention to increase the proportion of the active form of the pyruvate dehydrogenase enzyme has been measured in the following test: Rats fed on a high fat diet as in the previous test, are treated either with placebo or with the compound of formula (I) or (II) by sub-cutaneous or intravenous injection or by oral administration. After 11/2 hours the rat hearts are removed and homogenized under conditions which minimize changes in the proportion of the pyruvate dehydrogenase enzyme (PDH) which is present in the active form, as described by Whitehouse and Randle, Biochem, J., 134, 651 (1973). The total amount of the enzyme present (PDHt) and the amount which is present in the active form (PDHa) are assessed by a method similar to that described by Taylor et al., J. Biol. Chem., 248, 73 (1973). The fat-feeding process is found to depress the ratio […] from a normal value of about 0.7 to a value in the range from 0.1 to 0.3. Treatment of fat-fed rats with the compounds of formula (I) or (II) parenterally increases this ratio in a dose-dependent manner. The increase in […] ration affected by certain of the compounds when administered by subcutaneous infection at the dosage indicated is shown in the following table: […]
# [3] = 0.6 mmol/kg subcutaneous, placebo 0.12
smiles,measurement,setting,value
"NC(=O)C(N)c1ccc2c(c1)CCO2 (racemic) [Example 6, DL-α-Amino-2,3-dihydro-5-benzo(b)furanylacetamide]",activation at 500 µM,[1],29%
same,PDHa/PDHt ratio,[2]; [3],0.46
"COCCNC(=O)C(N)c1ccc2c(c1)CCO2.Cl (racemic) [Example 7, DL-N-(2-Methoxyethyl)-α-amino-2,3-dihydro-5-benzo(b)furanylacetamide Hydrochloride]",activation at 500 µM,[1],23%
same,PDHa/PDHt ratio,[2]; [3],0.47
"NC(C(=O)O)c1ccc2occc2c1 (racemic) [Example 9, DL-2-[5-Benzo(b)furanyl]glycine]",activation at 500 µM,[1],42%
"NC(=O)C(N)c1ccc2occc2c1 (racemic) [Example 10, DL-2-[5-Benzo(b)furanyl]glycinamide]",activation at 500 µM,[1],46%
"NC(C(=O)O)c1ccc2c(c1)CCS2 (racemic) [Example 13, DL-2-[2,3-Dihydro-5-benzo(b)thienyl]glycine]",activation at 500 µM,[1],21%
"NC(=O)C(N)c1ccc2c(c1)CCS2 (racemic) [Example 15, DL-2-[2,3-Dihydro-5-benzo(b)thienyl]glycinamide]",activation at 2000 µM,[1],11%
"O=C(O)C(=O)c1ccc2c(c1)CCS2 [Example 2, 2,3-Dihydro-5-benzo(b)thienylglyoxylic Acid]",activation at 1000 µM,[1],105%
same,PDHa/PDHt ratio,"[2]; 1.2 mmol/kg subcutaneous, placebo 0.27",0.48
"O=C(O)C(=O)c1ccc2c(c1)CCO2 [Example 3, 2,3-Dihydro-5-benzo(b)furanylglyoxylic Acid]",activation at 1000 µM,[1],128%
same,PDHa/PDHt ratio,"[2]; 0.3 mmol/kg subcutaneous, placebo 0.11",0.21
"O=C(O)C(=O)c1ccc2c(c1)CCCO2 [Example 4, 6-Chromanylglyoxylic Acid]",activation at 500 µM,[1],69%
"O=C(O)C(=O)c1ccc2occc2c1 [Example 8, 5-Benzo(b)furanylglyoxlic Acid]",activation at 500 µM,[1],95%
"O=C(O)C(=O)c1ccc2oc(-c3ccccc3)cc2c1 [Example 11, 2-Phenyl-5-benzo(b)furanyl Glyoxylic Acid]",activation at 2000 µM,[1],99%
same,PDHa/PDHt ratio,"[2]; 0.3 mmol/kg subcutaneous, placebo 0.20",0.26
"Cc1cc2cc(C(=O)C(=O)O)ccc2o1 [Example 12, 2-Methyl-5-benzo(b)furanylglyoxylic Acid]",activation at 500 µM,[1],58%
same,PDHa/PDHt ratio,"[2]; 0.3 mmol/kg subcutaneous, placebo 0.12",0.36
